Reference: patent US10865384B2, “2,4,5-tri-substituted azole-based casein kinase 1 inhibitors as inducers for cardiomyogenesis” (AGENCY FOR SCIENCE, TECHNOLOGY AND RESEARCH, priority 2014, dated 2020)
Read-outs that look alike come from different tables or passages of the source.

Experiments:
[1] = molecular target: T1, p38α MAPK (Homo sapiens (Human), UniProt Q16539); assay: HitHunter p38 MAP kinase binding assay
[2] = molecular target: CK1δ (Homo sapiens (Human), UniProt P48730); assay: LanthaScreen Eu kinase binding assay, CK1δ
Sequence of CK1δ (P48730 whole entry): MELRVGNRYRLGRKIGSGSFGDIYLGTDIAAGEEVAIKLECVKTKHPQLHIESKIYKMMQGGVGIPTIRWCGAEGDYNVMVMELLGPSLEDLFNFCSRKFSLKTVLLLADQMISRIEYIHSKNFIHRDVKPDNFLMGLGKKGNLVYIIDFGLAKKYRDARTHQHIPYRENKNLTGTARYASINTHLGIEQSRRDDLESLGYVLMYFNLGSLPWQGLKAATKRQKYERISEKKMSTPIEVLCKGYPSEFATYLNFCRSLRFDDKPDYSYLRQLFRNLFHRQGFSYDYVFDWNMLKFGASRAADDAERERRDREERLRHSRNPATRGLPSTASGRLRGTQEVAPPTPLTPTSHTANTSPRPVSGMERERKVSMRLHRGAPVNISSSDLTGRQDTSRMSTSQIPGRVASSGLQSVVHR

[3] = molecular target: CK1ϵ (Homo sapiens (Human), UniProt P49674); assay: LanthaScreen Eu kinase binding assay, CK1ϵ
Sequence of CK1ϵ (P49674 whole entry): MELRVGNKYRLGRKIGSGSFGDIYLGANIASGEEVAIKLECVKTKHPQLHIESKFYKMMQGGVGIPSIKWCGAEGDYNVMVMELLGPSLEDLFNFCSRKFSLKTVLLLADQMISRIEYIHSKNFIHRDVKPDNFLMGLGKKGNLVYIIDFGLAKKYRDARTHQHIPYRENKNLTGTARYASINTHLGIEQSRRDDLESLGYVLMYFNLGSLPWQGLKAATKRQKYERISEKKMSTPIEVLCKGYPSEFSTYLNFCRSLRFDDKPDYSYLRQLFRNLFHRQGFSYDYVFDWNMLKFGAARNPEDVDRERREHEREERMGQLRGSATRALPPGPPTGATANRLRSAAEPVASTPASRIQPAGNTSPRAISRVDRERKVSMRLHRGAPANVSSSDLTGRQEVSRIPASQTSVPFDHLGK

[4] = system: hESC3 Nkx2.5eGFP/w cells; assay: Differentiation in 96-U bottom ultra-low attachment well plates, GFP area imaging; assay type: cell-based, human; conditions: 5 μM; for Average GFP %: after CHIR99021, read on day 14, GFP area over embryoid body size; for Average GFP μm^2 / Average Area μm^2: day 14; for Average Area μm^2: embryoid body size
[5] = molecular target: T1, p38α MAPK; assay: LanthaScreen Eu kinase binding assay, p38 MAPK (IM-32 to IM-44); conditions: LanthaScreen Eu binding assay (IM-32 to IM-44); read-out: p38α MAPK IC50 ± SEM
Description: The p38 MAPK IC50 values of selected compounds except IM-32 to IM-44 were determined using the HitHunter™ p38 MAP kinase binding assay from DiscoveRx Corporation (Fremont, Calif., USA). The p38 MAPK IC50 values of IM-32 to IM-44 and the CK1 IC50 values of selected compounds were determined using LanthaScreen™ Eu kinase binding assay from Invitrogen (Life Technologies, Carlsbad, Calif., USA). The assays were performed following the manufacturers' protocols in white 384-well plates (Cat. No. 3572; Corning Incorporated, Corning, N.Y., USA). SB203580 was used as the control in all assays. For the HitHunter™ p38 MAP kinase binding assay the compounds were dissolved in DMSO (5 mM stocks) and diluted to a final concentration of 2% (vol/vol) DMSO for all assays. Recombinant GST-tagged active p38α MAP kinase enzyme (Millipore, Billerica, Mass., USA) was used for the HitHunter™ p38 MAP kinase binding assay. For the LanthaScreen™ Eu kinase binding assay the compounds were dissolved in DMSO (5 mM stocks) and diluted to a final concentration of 1% (vol/vol) DMSO for all assays. Each data point was done in triplicate. The assay was run using JANUS Automated Workstation according to the protocol developed using WinPREP software (Perkin Elmer Inc., Waltham, Mass., USA). Tecan Infinite® M1000 microplate reader (Tecan Group Ltd., Minnedorf, Switzerland) was used for luminescence measurements (HitHunter™ p38 MAP kinase binding assay) and fluorescence measurements (LanthaScreen™ Eu kinase binding assay; ex=340 nm, em=665, 615 nm). All data analysis was performed using GraphPad Prism 5 software (GraphPad Software Inc.). Inhibition curves and IC50 values were generated by nonlinear regression analysis and data represent mean±SEM.
The in vitro IC50 values of the synthesized compounds against the relevant kinase targets are summarized. The IC50 values were determined using either the HitHunter™ p38 MAPK binding assay from DiscoveRx or the LanthaScreen™ Eu kinase binding assay (for p38alpha MAPK, CK1delta, and CK1epsilon) from Invitrogen.

[6] = system: H3 hESCs Nkx2.5eGFP/w; assay: High yield cardiomyocyte differentiation after 24 h CHIR99021 pre-treatment; assay type: cell-based, human; conditions: CHIR99021 only; CHIR99021 with SB203580 (days 1-8); CHIR99021 with IM-31 (days 4-8)
[7] = bound given in μM, read-out: p38α MAPK IC50

T1 sequence (Q16539 whole entry, looked up): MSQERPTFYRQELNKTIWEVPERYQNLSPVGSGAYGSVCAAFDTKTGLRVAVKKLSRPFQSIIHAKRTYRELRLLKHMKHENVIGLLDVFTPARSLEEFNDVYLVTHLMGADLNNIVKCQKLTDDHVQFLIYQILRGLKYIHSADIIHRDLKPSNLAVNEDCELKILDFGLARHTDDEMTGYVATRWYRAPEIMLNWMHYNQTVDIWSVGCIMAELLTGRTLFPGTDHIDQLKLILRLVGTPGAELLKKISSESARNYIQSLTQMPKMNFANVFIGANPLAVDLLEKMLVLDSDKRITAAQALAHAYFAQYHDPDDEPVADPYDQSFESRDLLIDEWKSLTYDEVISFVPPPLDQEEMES

Compound	IC50 ([1]; read-out: p38α MAPK IC50 ± SEM) [µM]	IC50 ([2]; Table 3, read-out: IC50 CK1δ) [nM]	IC50 ([2]; read-out: CK1δ IC50 ± SEM) [nM]	IC50 ([3]; Table 3, read-out: IC50 Ck1ε) [nM]	IC50 ([3]; read-out: CK1ϵ IC50 ± SEM) [nM]	CK1ϵ inhibition at 1 μM [3]	inhibition at 1 µM [2] [%]	other results
Fc1ccc(-c2nc(-c3ccccc3F)[nH]c2-c2ccncc2)cc1 [IM-30, 4-(2-(2-fluorophenyl)-4(5)-(4-fluorophenyl)-1H-imidazol-5(4)-yl)pyridine]	0.02 ± 0.004	32	32 ± 4	32	32 ± 4			Cardiogenic properties ([4]; at specific time course (induction day 2 or 3)): higher cardiogenic properties as SB203580 and IWP-2; Average GFP % ([4]; Induction Day 2): 32.8%; Average GFP μm^2 ([4]; Induction Day 2): 250.1 μm^2; Average Area μm^2 ([4]; Induction Day 2): 816.0 μm^2; Average GFP % ([4]; Induction Day 3): 36.5%; Average GFP μm^2 ([4]; Induction Day 3): 354.1 μm^2; Average Area μm^2 ([4]; Induction Day 3): 968.7 μm^2
Cc1cccc(-c2nc(-c3ccc(C(=O)O)cc3)[nH]c2-c2ccncc2)c1 [IM-38, 4-(5(4)-(pyridin-4-yl)-4(5)-(m-tolyl)-1H-imidazol-2-yl)benzoic acid]		4710	4710 ± 1620	1060	1060 ± 108			IC50 [5]: 3.3 ± 1.1 nM
Cc1cccc(-c2nc(-c3ccccc3)[nH]c2C2=CCOCC2)c1 [IM-11, 5(4)-(3,6-dihydro-2H-pyran-4-yl)-2-phenyl-4(5)-(m-tolyl)-1H-imidazole]	0.526 ± 0.137					No inhibition at 1 μM		CK1δ inhibition at 1 μM [2]: No inhibition at 1 μM
Cc1cccc(-c2nc(-c3c(F)cccc3F)[nH]c2C2=CCOCC2)c1 [IM-18, 2-(2,6-difluorophenyl)-5(4)-(3,6-dihydro-2H-pyran-4-yl)-4(5)-(m-tolyl)-1H-imidazole]	0.014 ± 0.002				1240 ± 437		3	
Cc1cccc(-c2nc(-c3ccc4ccccc4c3)[nH]c2-c2ccncc2)c1 [IM-01, 4-(2-(naphthalen-2-yl)-4(5)-(m-tolyl)-1H-imidazol-5(4)-yl)pyridine]	0.098 ± 0.011						5	inhibition at 1 µM [3]: 6%
Cc1cccc(-c2nc(-c3ccc(O)cc3)[nH]c2C2=CCOCC2)c1 [IM-15, 4-(5(4)-(3,6-dihydro-2H-pyran-4-yl)-4(5)-(m-tolyl)-1H-imidazol-2-yl)phenol]	0.033 ± 0.002					No inhibition at 1 μM		CK1δ inhibition at 1 μM [2]: No inhibition at 1 μM
Cc1cccc(-c2nc(-c3ccccc3Cl)[nH]c2C2=CCOCC2)c1 [IM-12, 2-(2-chlorophenyl)-5(4)-(3,6-dihydro-2H-pyran-4-yl)-4(5)-(m-tolyl)-1H-imidazole]	0.043 ± 0.002						23	inhibition at 1 µM [3]: 10%
Fc1ccc(-c2nc(-c3c(F)cccc3F)[nH]c2C2=CCOCC2)cc1 [IM-23, 2-(2,6-difluorophenyl)-5(4)-(3,6-dihydro-2H-pyran-4-yl)-4(5)-(4-fluorophenyl)-1H-imidazole]	0.055 ± 0.014	548	548 ± 116	751	751 ± 168			
Cc1cccc(-c2nc(-c3ccccc3F)[nH]c2C2=CCOCC2)c1 [IM-06, 5(4)-(3,6-dihydro-2H-pyran-4-yl)-2-(2-fluorophenyl)-4(5)-(m-tolyl)-1H-imidazole]	0.09 ± 0.02					No inhibition at 1 μM	3	
Cc1cccc(-c2nc(-c3ccccc3O)[nH]c2C2=CCOCC2)c1 [IM-14, 2-(5(4)-(3,6-dihydro-2H-pyran-4-yl)-4(5)-(m-tolyl)-1H-imidazol-2-yl)phenol]								IC50 [1, 7]: > 5 µM; CK1δ inhibition at 1 μM [2]: No inhibition at 1 μM; inhibition at 1 µM [3]: 3%
Cc1cccc(-c2nc(-c3ccc([S+](C)[O-])cc3)[nH]c2-c2ccncc2)c1 (stereo not shown) [IM-28]	0.024 ± 0.009	708	708 ± 43	274	274 ± 7			
Fc1c(-c2nc(-c3cccc(C(F)(F)F)c3)c(-c3ccncc3)[nH]2)ccc2ccccc12 [IM-02, 4-(2-(1-fluoronaphthalen-2-yl)-4(5)-(3-(trifluoromethyl)phenyl)-1H-imidazol-5(4)-yl)pyridine]	2.66 ± 0.466					No inhibition at 1 μM		CK1δ inhibition at 1 μM [2]: No inhibition at 1 μM
Cc1cccc(-c2nc(-c3ccc([S+](C)[O-])cc3)[nH]c2C2=CCOCC2)c1 (stereo not shown) [IM-16]	0.073 ± 0.021	2540	2540	5610	5610 ± 319			
Cc1cccc(-c2nc(-c3ccc4ccccc4c3F)[nH]c2-c2ccncc2)c1 [IM-04]	0.02 ± 0.007	490	490 ± 66	277	277 ± 40			
COc1ccc2cc(-c3nc(-c4cccc(C)c4)c(C4=CCOCC4)[nH]3)ccc2c1 [IM-09, 5(4)-(3,6-dihydro-2H-pyran-4-yl)-2-(6-methoxynaphthalen-2-yl)-4(5)-(m-tolyl)-1H-imidazole]	2.35 ± 0.374					No inhibition at 1 μM	13	
Cc1ccc(-c2nc(-c3ccccc3F)[nH]c2C2=CCOCC2)cc1 [IM-21, 5(4)-(3,6-dihydro-2H-pyran-4-yl)-2-(2-fluorophenyl)-4(5)-(p-tolyl)-1H-imidazole]	3.37 ± 0.824					No inhibition at 1 μM		CK1δ inhibition at 1 μM [2]: No inhibition at 1 μM
Cc1cccc(-c2nc(-c3ccc(O)cc3)[nH]c2-c2ccncc2)c1 [IM-27]	0.0084 ± 0.003	1280	1280 ± 828	411	411 ± 120			
C[S+]([O-])c1ccc(-c2nc(-c3ccc(F)cc3)c(C3=CCOCC3)[nH]2)cc1 (stereo not shown) [IM-25]	0.454 ± 0.067	1490	1490 ± 285	5890	5890 ± 180			
Cc1cccc(-c2nc(-c3ccc([N+](=O)[O-])cc3)[nH]c2C2=CCOCC2)c1 [IM-17, 5(4)-(3,6-dihydro-2H-pyran-4-yl)-2-(4-nitrophenyl)-4(5)-(m-tolyl)-1H-imidazole]	0.02 ± 0.002					No inhibition at 1 μM	17	
Cc1cccc(-c2nc(-c3ccccc3Br)[nH]c2C2=CCOCC2)c1 [IM-13, 2-(2-bromophenyl)-5(4)-(3,6-dihydro-2H-pyran-4-yl)-4(5)-(m-tolyl)-1H-imidazole]	0.019 ± 0.002						23	inhibition at 1 µM [3]: 23%
C[S+]([O-])c1ccc(-c2nc(-c3ccc(F)cc3)c(-c3ccncc3)[nH]2)cc1 (stereo not shown) [SB203580, reference compound]								Average beating frequency [6]: 25-30 beats per minute; Beat count (percentage of EBs contracting within 10 s) [6]: over 75%; Beating area [6]: > 5 mm^2; Average GFP % ([4]; Induction Day 2): 34.6%; Average GFP μm^2 ([4]; Induction Day 2): 217.8 μm^2; Average Area μm^2 ([4]; Induction Day 2): 655.4 μm^2; Average GFP % ([4]; Induction Day 3): 3.7%; Average GFP μm^2 ([4]; Induction Day 3): 40.2 μm^2; Average Area μm^2 ([4]; Induction Day 3): 814.2 μm^2
C[S+]([O-])c1ccc(-c2nc(-c3ccncc3)c(-c3ccc(F)cc3)o2)cc1 (stereo not shown) [OZ-12, 5-(4-fluorophenyl)-2-(4-(methylsulfinyl)phenyl)-4-(pyridin-4-yl)oxazole]							34	IC50 [1, 7]: > 5 µM; inhibition at 1 µM [3]: 51%
Cc1cccc(-c2nc(-c3c(F)cccc3F)[nH]c2-c2ccncc2)c1 [IM-26]	0.0043 ± 0.0017	78	78 ± 20	44	44 ± 5			
C[S+]([O-])c1ccc(-c2nc(-c3ccc(F)cc3)c(-c3ccncc3)o2)cc1 (stereo not shown) [OZ-06]	0.314 ± 0.044						46	inhibition at 1 µM [3]: 54%
Fc1ccc(-c2nc(-c3ccc4ccccc4c3F)[nH]c2C2=CCOCC2)cc1 [IM-22, 5(4)-(3,6-dihydro-2H-pyran-4-yl)-2-(1-fluoronaphthalen-2-yl)-4(5)-(4-fluorophenyl)-1H-imidazole]	2.31 ± 0.714					No inhibition at 1 μM	14	
